Data published in the NIST ThermoML archive (doi:10.1016/j.jct.2013.11.038).
Where “and” joins values, the source holds several entries; their conditions need not be identical. Identical values can stand only once.

Experiments:
[1] = Crystal; for vapor or sublimation pressure: Calculated from knudsen effusion weight loss; for Normal melting temperature: DTA
[2] = Molar enthalpy of transition or fusion; details: Crystal; DSC
[3] = molar heat capacity at constant pressure; details: 101.33 kPa, Crystal, Large sample (1 g) DSC

O=C1c2ccccc2-c2cccc3cccc1c23 [7H-benz[de]anthracen-7-one]
Details | molar heat capacity at constant pressure [J/K/mol] | vapor or sublimation pressure
[1], 360.04 K | – | 5.7e-06 kPa [middle of 4 runs]
[1], 369.32 K | – | 1.67e-05 kPa [middle of 4 runs]
[1], 380.12 K | – | 5.13e-05 kPa [middle of 6 runs]
[1], 390.32 K | – | 0.0001425 kPa [middle of 6 runs]
[1], 400.17 K | – | 0.0003806 kPa [middle of 7 runs]
[1], 410.37 K | – | 0.0009607 kPa [middle of 6 runs]
[3], 300.47 K | 257.2 | –
[3], 305.43 K | 262.2 | –
[3], 310.4 K | 265.7 | –
[3], 315.36 K | 270.5 | –
[3], 320.32 K | 275 | –

Details | Molar enthalpy of transition or fusion [kcal/mol] | Normal melting temperature [°C]
[1] | – | 173.63
[2] | 6.3 | –

O=C(O)c1ccccc1 [benzoic acid]
Details | molar heat capacity at constant pressure [J/K/mol] | vapor or sublimation pressure
[1], 269.3 K | – | 2.1e-06 kPa and 2.2e-06 kPa
[1], 275.04 K | – | 5.1e-06 kPa and 5e-06 kPa and 4.9e-06 kPa
[1], 281.33 K | – | 1.24e-05 kPa [middle of 4 runs]
[1], 287.28 K | – | 2.71e-05 kPa [middle of 7 runs]
[1], 293.19 K | – | 5.78e-05 kPa [middle of 6 runs]
[1], 299.18 K | – | 0.0001196 kPa [middle of 7 runs]
[1], 305.18 K | – | 0.0002454 kPa [middle of 7 runs]
[1], 311.17 K | – | 0.0004925 kPa [middle of 7 runs]
[1], 317.13 K | – | 0.0009533 kPa [middle of 6 runs]
[3], 308.15 K | 152.1 | –
[3], 318.15 K | 157.3 | –
[3], 328.15 K | 161.6 | –
[3], 338.15 K | 166.9 | –
[3], 348.15 K | 170.8 | –
[3], 358.15 K | 175.6 | –
[3], 368.15 K | 180 | –
[3], 378.15 K | 186.9 | –

Details | Molar enthalpy of transition or fusion [kcal/mol] | Normal melting temperature [°C]
[1] | – | 122.22
[2] | 4.28 | –

O=C(Oc1ccccc1)Oc1ccccc1 [diphenyl carbonate]
[1]
Details | vapor or sublimation pressure
302.18 K | 2.22e-05 kPa [middle of 5 runs]
308.17 K | 5.05e-05 kPa [middle of 5 runs]
314.32 K | 0.0001144 kPa [middle of 7 runs]
320.25 K | 0.0002424 kPa [middle of 7 runs]
326.23 K | 0.0005075 kPa [middle of 7 runs]
332.24 K | 0.001043 kPa [middle of 6 runs]

CCCCCCCCCCCCCCCCCC [octadecane]
Details | molar heat capacity at constant pressure, 283.85 K [J/K/mol] | molar heat capacity at constant pressure, 285.5 K [J/K/mol] | molar heat capacity at constant pressure, 287.15 K [J/K/mol] | molar heat capacity at constant pressure, 288.81 K [J/K/mol] | molar heat capacity at constant pressure, 290.46 K [J/K/mol] | vapor or sublimation pressure, 286.34 K | vapor or sublimation pressure, 289.28 K | vapor or sublimation pressure, 292.27 K | vapor or sublimation pressure, 295.17 K | vapor or sublimation pressure, 297.99 K
[1] | – | – | – | – | – | 2e-06 kPa [middle of 4 runs] | 3.1e-06 kPa [middle of 4 runs] | 5.9e-06 kPa [middle of 4 runs] | 1.02e-05 kPa and 1.07e-05 kPa and 1.01e-05 kPa | 1.9e-05 kPa [middle of 5 runs]
[3] | 448.6 | 455.2 | 460.7 | 467.3 | 472.4 | – | – | – | – | –

Details | Molar enthalpy of transition or fusion [kcal/mol] | Normal melting temperature [°C]
[1] | – | 28.31
[2] | 14.7 | –
